ChEMBL document CHEMBL1127977, “Benzolactam growth hormone secretagogues: Carboxamides as replacements for the 2-tetrazole moiety of L-692,429” (1994)

Organism: Rattus norvegicus
Test: Tested in vitro for growth hormone release in rat pituitary cells
Assay type: functional
Conditions: Pituitary gland cell, read-out: ED50 (the source's name)

CC(C)(N)CC(=O)N[C@@H]1CCc2ccccc2N(Cc2ccc(-c3ccccc3C(=O)NCCCCCO)cc2)C1=O
EC50: 10 nM

CCN(CC)C(=O)c1ccccc1-c1ccc(CN2C(=O)[C@H](NC(=O)CC(C)(C)N)CCc3ccccc32)cc1
EC50: 2000 nM

CC(C)(N)CC(=O)N[C@@H]1CCc2ccccc2N(Cc2ccc(-c3ccccc3C(=O)NCc3ccc(O)cc3)cc2)C1=O
EC50: 300 nM

CC(C)(N)CC(=O)N[C@@H]1CCc2ccccc2N(Cc2ccc(-c3ccccc3C(=O)NCCCCO)cc2)C1=O
EC50: 10 nM

COc1ccc(CNC(=O)c2ccccc2-c2ccc(CN3C(=O)[C@H](NC(=O)CC(C)(C)N)CCc4ccccc43)cc2)cc1
EC50: 2000 nM

CC(C)(N)CC(=O)N[C@@H]1CCc2ccccc2N(Cc2ccc(-c3ccccc3C(=O)NCCO)cc2)C1=O
EC50: 3000 nM

CC(C)(N)CC(=O)N[C@@H]1CCc2ccccc2N(Cc2ccc(-c3ccccc3-c3nn[nH]n3)cc2)C1=O
EC50: 60 nM

CC(C)(N)CC(=O)N[C@@H]1CCc2ccccc2N(Cc2ccc(-c3ccccc3C(=O)NCc3ccccc3)cc2)C1=O
EC50: 900 nM

CCNC(=O)c1ccccc1-c1ccc(CN2C(=O)[C@H](NC(=O)CC(C)(C)N)CCc3ccccc32)cc1
EC50: 90 nM

CCCCCNC(=O)c1ccccc1-c1ccc(CN2C(=O)[C@H](NC(=O)CC(C)(C)N)CCc3ccccc32)cc1
EC50: > 1000 nM

CC(C)(N)CC(=O)N[C@@H]1CCc2ccccc2N(Cc2ccc(-c3ccccc3C(N)=O)cc2)C1=O
EC50: 80 nM

CC(C)(CC(=O)N[C@@H]1CCc2ccccc2N(Cc2ccc(-c3ccccc3C(N)=O)cc2)C1=O)NC[C@H](O)CO
EC50: 3 nM

CC(C)(N)CC(=O)N[C@@H]1CCc2ccccc2N(Cc2ccc(-c3ccccc3C(=O)NCCCO)cc2)C1=O
EC50: 400 nM

CC(C)(CC(=O)N[C@@H]1CCc2ccccc2N(Cc2ccc(-c3ccccc3-c3nn[nH]n3)cc2)C1=O)NC[C@H](O)CO
EC50: 10 nM

C[C@@H](O)CNC(C)(C)CC(=O)N[C@@H]1CCc2ccccc2N(Cc2ccc(-c3ccccc3C(N)=O)cc2)C1=O
EC50: 4 nM

C[C@@H](O)CNC(C)(C)CC(=O)N[C@@H]1CCc2ccccc2N(Cc2ccc(-c3ccccc3-c3nn[nH]n3)cc2)C1=O [L-692585]
EC50: 3 nM
